Results taken from patent US9376421B2, “Compounds and methods for myotonic dystrophy therapy” (The Board of Trustees of the University of Illinois, priority 2014, dated 2016).
Entries after “also recorded” stand apart in the source; their conditions may differ.

Experiments:
[1] = test system: cTNT32; assay: Ligand-RNA binding affinity, cTNT32
[2] = test system: cells; details: cited from earlier work
[3] = test system: insulin receptor (IR) minigene splicing; details: DM1 model cell cultures; cited from earlier work
[4] = test system: d(CTG)12; assay: Isothermal titration calorimetry, d(CTG)12; type: binding; details: 25° C., 20 mM MOPS pH 7.0, 300 mM NaCl
Description: (§1) To directly assess the DNA-targeting ability of 9, ITC experiments were performed with oligonucleotide analogs of the various trinucleotide repeat sequences (Table 1). […] This supports the idea that 9 inhibits the transcription of CTG^exp by stabilizing its hairpin structure. […] The in vitro transcription experiment using (CTG[…]CAG)74 (SEQ ID NOS 3-4, respectively) and compounds 2, 5-7, and 9 was repeated but with (CUG)16 (SEQ ID NO: 1) added as a competitor.
(§2) Isothermal titration calorimetry (ITC) measurements were performed at 25° C. on a MicroCal VP-ITC (MicroCal, Inc., Northampton, Mass.). A standard experiment consisted of titrating 10 μL of a 500 μM ligand solution from a […] syringe (rotating at 300 rpm) into a sample cell containing 1.42 mL of a 10 μM DNA or RNA solution. An ITC experiment consisted of 28 total injections (first injection was 5 μL, subsequent injections were 10 μL), with a 10 s duration per injection and delay of 380 s between injections. The initial delay prior to the first injection was 300 s. To derive the heat associated with each injection, the area under each isotherm (microcalories per second versus seconds) was determined by integration by the graphing program Origin 7.0 (MicroCal, Inc. Northampton, Mass.). […]

[5] = test system: Drosophila larvae expressing i(CUG)480; assay: Larval crawling assay in DM1 Drosophila; type: in vivo; details: 400 μM; untreated i(CUG)480 9 lines/min
Source text: To test the abilities of 2 and 9 to improve the locomotor behavior of Drosophila larvae, we used crawling assays (Nichols et al., J. Vis. Exp. 61, e3795 (2012); Lanson et al., Hum. Mol. Genet. 20, 2510-2523 (2011); Batlevi et al., Proc. Natl. Acad. Sci. U.S.A. 107, 742-747 (2010)). […] Those expressing i(CUG)480 (SEQ ID NO: 17) crossed only 9 lines/min (FIG. 9b). […] Importantly, the phenotypic improvement with both compounds was dose-dependent and 9 in all cases provided greater phenotypic reversal than did 2.
Drosophila lines were cultured in standard cornmeal medium supplemented with dry yeasts. Fly lines bearing UAS-(CTG)60 (SEQ ID NO: 5) and UAS-(CTG)480 (SEQ ID NO: 6) were kind gifts of Prof. Rubén Artero Allepuz (Universitat de València, Estudi General, Spain). The gmr-GAL4 and 24B-GAL4 lines were used to drive UAS transgene expression in eye and muscles respectively. Ligands 2 and 9 were dissolved in ddH2O and mixed with fly food. […]
Larval crawling assays were performed as described in Lanson et al (Hum. Mol. Genet. 20, 2510-2523 (2011)). […] The larvae were allowed to acclimate for a period of 1 min, and the total number of gridlines that the posterior end of the larvae passed in 1 min was determined Each set of experiment was repeated independently three times using larvae collected from separate genetic crosses.

[6] = test system: cTNT minigene splicing; details: DM1 model cell cultures; cited from earlier work
[7] = test system: SV40 terminator mRNA in i(CUG)60 larvae; assay: SV40 mRNA level in i(CUG)60 larvae (real-time PCR); type: in vivo, Drosophila; details: 400 μM
[8] = test system: d(CTG.CAG)12; assay: Isothermal titration calorimetry, d(CTG.CAG)12; type: binding; details: 25° C., 20 mM MOPS pH 7.0, 300 mM NaCl
Description: as §1, §2

[9] = target: MBNL1-CUGexp complex; details: previously reported; cited from earlier work
[10] = cited from earlier work
[11] = test system: MBNL1-CUGexp nuclear foci in HeLa cells transfected with GFP-DT960; details: DM1 model cell cultures; cited from earlier work
[12] = test system: DM1 Drosophila expressing i(CTG)480; assay: External eye assay in DM1 Drosophila; type: in vivo
Description: Drosophila lines were cultured in standard cornmeal medium supplemented with dry yeasts. […] The gmr-GAL4 and 24B-GAL4 lines were used to drive UAS transgene expression in eye and muscles respectively. Ligands 2 and 9 were dissolved in ddH2O and mixed with fly food. Genetic crosses were set up in drug-containing fly food at 21.5° C. for external eye assay, and at 25° C. for larval crawling assay and real-time PCR analysis.

[13] = test system: Drosophila bearing i(CUG)60; assay: Treatment of control Drosophila bearing i(CUG)60; details: in vivo
Source text: FIG. 15A-C. Rescuing disease phenotypes in DM1 Drosophila with ligands 2 and 9. […] The error bars represent the standard deviation of three independent experiments (“(CTG)60” is disclosed as SEQ ID NO: 5).

[14] = test system: (CUG)n; assay: Ligand-RNA binding affinity, (CUG)n
Source text: Off target activity is a concern for any therapeutic agent but especially one designed to cleave RNA. To test the selectivity of agents 6 and 9, the screening gel assay described above was applied to other RNA targets, specifically cTNT32, (CCUG)8 (SEQ ID NO: 11), and HIV-1 frameshift site RNA (HIV FS) (FIG. 5a). Both 6 and 9 were quite selective. […] Thus, both similarly adopt stem-loop structures with internal loops within the stem, although obviously of different sequences. Differences between 6 and 9 were observed (FIG. 5) with the former cleaving (CCUG)8 (SEQ ID NO: 11), the toxic RNA involved in myotonic dystrophy type 2 (DM2). […] The ability to process the RNA directly parallels the corresponding ligand-RNA binding affinities. Thus, 1, which contains the acridine-triazine core of agent 6, complexes the (CCUG)6 (SEQ ID NO: 12) and (CUG)n sequences.

[15] = test system: SV40 terminator mRNA in i(CUG)480 larvae; assay: SV40 mRNA level in i(CUG)480 larvae (real-time PCR); type: in vivo, Drosophila; details: relative to actin RNA

N=C(NCCCCNc1nc(N)nc(N)n1)c1ccc(C(=N)NCCCCNc2nc(N)nc(N)n2)cc1 [Ligand 2]
affinity toward cTNT32 [1]: no affinity
cell permeability / cell uptake [2]: better cell uptake
rescue of splicing defect of IR minigene (earlier work) [3]: partially rescued
binding affinity toward d(CTG)12 by ITC [4]: lack of binding affinity; also recorded: no detectable binding
average crawling speed [5]: ca. 13 lines/min
rescue of splicing defect of cTNT minigene (earlier work) [6]: partially rescued
SV40 mRNA levels in larvae having i(CUG)60 [7]: no change
binding affinity toward d(CTG.CAG)12 by ITC [8]: lack of binding affinity
KI, inhibition of MBNL binding [9]: low micromolar
water solubility in comparison to 1 [10]: higher water solubility
dissolution of MBNL1-CUGexp nuclear foci (earlier work) [11]: dissolved the MBNL1-CUG^exp nuclear foci
disease phenotype in DM1 fly eyes at 200 μM ([12]; 200 μM): reversed the disease phenotype
neurodegenerative (glossy and rough-eye) phenotype ([12]; in fly food, 6 d): reversal of the disease phenotype but less effectively; also recorded: improved the neurodegeneration
effects on larval locomotion and eyes of i(CUG)60 Drosophila [13]: no effects
complexation of (CUG)n [14]: complexes
reduction of SV40 mRNA levels in i(CUG)480 larvae [15]: did not
